The record followed here is patent publication US20210070748A1, “INHIBITORS OF BRUTONS TYROSINE KINASE” (Pharmacyclics LLC, priority 2015, published 2021).

The structures appear in SMILES notation. Like-named read-outs stand apart in the source and are kept apart here. A value given as a limit tells only on which side of the number the result lay.

In one assay the target is T1, BTK-WT (Homo sapiens, UniProt Q06187).
T1 construct: purified from insect cells as a full-length construct containing an N-terminal 6X-His tag; His6 (N); made in house; host or cells: insect cells (baculovirus Sf21 in Method B)
T1 sequence (Q06187 whole entry): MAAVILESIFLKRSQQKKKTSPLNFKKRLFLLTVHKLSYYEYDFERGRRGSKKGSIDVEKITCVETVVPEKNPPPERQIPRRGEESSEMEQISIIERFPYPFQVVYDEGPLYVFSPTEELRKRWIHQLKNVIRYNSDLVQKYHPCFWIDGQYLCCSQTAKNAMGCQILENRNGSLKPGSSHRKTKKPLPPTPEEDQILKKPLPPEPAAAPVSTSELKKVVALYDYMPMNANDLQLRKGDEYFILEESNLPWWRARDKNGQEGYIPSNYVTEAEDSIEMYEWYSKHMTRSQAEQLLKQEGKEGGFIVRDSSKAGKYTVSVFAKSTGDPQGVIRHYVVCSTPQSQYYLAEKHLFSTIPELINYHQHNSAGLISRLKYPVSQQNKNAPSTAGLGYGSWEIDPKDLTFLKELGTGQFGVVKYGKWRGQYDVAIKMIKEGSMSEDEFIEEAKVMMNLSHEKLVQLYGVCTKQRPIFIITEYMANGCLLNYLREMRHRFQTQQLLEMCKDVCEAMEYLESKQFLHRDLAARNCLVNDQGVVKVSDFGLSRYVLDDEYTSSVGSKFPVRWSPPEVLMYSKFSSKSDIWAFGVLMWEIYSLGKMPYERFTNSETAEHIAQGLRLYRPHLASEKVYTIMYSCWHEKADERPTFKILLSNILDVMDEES
Description: Btk in vitro inhibitory activity (one of Method A TR-FRET, Method B electrophoretic mobility shift, Method C radiometric filter binding). Type of assay: biochemical. As to conditions: read-out: IC50 BTK-WT.

The target in a further assay is T2, TEC (Homo sapiens, UniProt P42680).
T2 sequence (P42680 1-631): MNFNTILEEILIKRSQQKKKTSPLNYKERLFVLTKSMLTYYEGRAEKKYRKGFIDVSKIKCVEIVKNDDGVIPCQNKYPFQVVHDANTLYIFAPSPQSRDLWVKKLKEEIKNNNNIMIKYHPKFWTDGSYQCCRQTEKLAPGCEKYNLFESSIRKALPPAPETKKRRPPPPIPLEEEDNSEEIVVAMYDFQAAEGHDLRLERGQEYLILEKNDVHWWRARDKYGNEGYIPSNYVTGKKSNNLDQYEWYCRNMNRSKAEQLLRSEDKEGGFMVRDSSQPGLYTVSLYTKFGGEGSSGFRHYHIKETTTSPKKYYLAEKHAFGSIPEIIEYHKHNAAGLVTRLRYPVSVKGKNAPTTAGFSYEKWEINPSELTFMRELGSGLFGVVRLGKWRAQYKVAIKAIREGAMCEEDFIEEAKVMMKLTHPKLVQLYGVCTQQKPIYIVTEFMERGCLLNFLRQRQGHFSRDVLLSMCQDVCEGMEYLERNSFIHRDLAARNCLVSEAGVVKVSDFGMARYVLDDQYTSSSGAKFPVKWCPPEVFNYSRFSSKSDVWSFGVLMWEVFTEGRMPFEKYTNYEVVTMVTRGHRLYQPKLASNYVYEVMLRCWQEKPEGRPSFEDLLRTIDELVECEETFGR
Put plainly: Inhibition of a panel of kinases, in vitro HotSpot kinase assay: TEC. The class given is biochemical. The procedure:
The degree of inhibition of a panel of kinases is determined using the in vitro HotSpot kinase assay (purified enzymes, ^33P-ATP, an appropriate substrate and 1 μM ATP).

[1] abbreviates: Table 13, A compounds, 1 μM ATP.

What is called IC50 is the concentration needed to halve the response being measured.

Turning to `C[C@@H]1[C@H](NC(=O)c2ccc(C3CC3)cc2F)CCCN1c1cnc(C(N)=O)c(Nc2ccc(N3CCN(C4CCCC4)CC3)cc2)n1` [Example A-125, 3-{[4-(4-cyclopentylpiperazin-1-yl)phenyl]amino}-5-[(2R,3R)-3-(4-cyclopropyl-2-fluorobenzamido)-2-methylpiperidin-1-yl]pyrazine-2-carboxamide], the half-maximal inhibitory concentration (IC50) at BTK-WT (Table 13, A compounds) is at most 10 nM; on TEC (setting [1]) it was 10 to 100 nM.

On to `CN1CCN(c2ccc(Nc3nc(N4CCC[C@@H](n5ccc6cc(C7CC7)cc(F)c6c5=O)C4)cnc3C(N)=O)cc2)CC1` [Example A-133, 5-[(3R)-3-(6-cyclo-propyl-8-fluoro-1-oxo-1,2-dihydroisoquinolin-2-yl)piperidin-1-yl]-3-{[4-(4-methylpiperazin-1-yl)phenyl]amino}pyrazine-2-carboxamide], for which the IC50 was at most 10 nM at BTK-WT (Table 13, A compounds) and 10 to 100 nM against TEC (setting [1]).

Turning to `C=CC(=O)N1CCC[C@@H](Nc2nnc(C(N)=O)c(Nc3ccc(Cl)cc3)n2)[C@H]1C` [Example E-7, 3-(((2R,3R)-1-acryloyl-2-methylpiperidin-3-yl)amino)-5-((4-chlorophenyl)amino)-1,2,4-triazine-6-carboxamide], the IC50 at BTK-WT (E compounds, Table 17) is at most 10 nM; against TEC (E compounds, Table 17) it was at most 10 nM.

Regarding `C[C@@H]1[C@H](NC(=O)c2ccc3oc(C4CC4)nc3c2)CCCN1c1cnc(C(N)=O)c(Nc2cnn(C)c2)n1` [Example E-139, N-((2R,3R)-1-(5-carbamoyl-6-((1-methyl-1H-pyrazol-4-yl)amino)pyrazin-2-yl)-2-methylpiperidin-3-yl)-2-cyclopropylbenzo[d] oxazole-5-carboxamide], the concentration for half-maximal inhibition (IC50) at BTK-WT (E compounds, Table 17) was at most 10 nM; at TEC (E compounds, Table 17) it was at most 10 nM.

With `C[C@@H]1[C@H](NC(=O)c2ccc(C3CC3)cc2Cl)CCCN1c1cnc(C(N)=O)c(Nc2ccc(N3CCN(C)CC3)cc2)n1` [Example A-180, 5-[(2R,3R)-3-(2-chloro-4-cyclopropylbenzamido)-2-methylpiperidin-1-yl]-3-{[4-(4-methylpiperazin-1-yl)phenyl]amino}pyrazine-2-carboxamide], the IC50 is at most 10 nM at BTK-WT (Table 13, A compounds) and 10 to 100 nM against TEC (setting [1]).

On to `C[C@@H]1[C@H](NC(=O)c2ccc(C3CC3)cn2)CCCN1c1cnc(C(N)=O)c(Nc2ccc(N3CCN(C)CC3)cc2)n1` [Example A-179, 5-[(2R,3R)-3-(5-cyclopropyl-pyridine-2-amido)-2-methylpiperidin-1-yl]-3-{[4-(4-methylpiperazin-1-yl)phenyl]amino}pyrazine-2-carboxamide], for which the 50% inhibitory concentration (IC50) on BTK-WT (Table 13, A compounds) is at most 10 nM; against TEC (setting [1]) it was 10 to 100 nM.

For `C[C@@H]1[C@H](NC(=O)c2ccc(C3CC3)cc2F)CCCN1c1cnc(C(N)=O)c(Nc2ccc(S(=O)(=O)N3CCN(C)CC3)cc2)n1` [Example A-156, 5-[(2R,3R)-3-(4-cyclopropyl-2-fluorobenzamido)-2-methylpiperidin-1-yl]-3-({4-[(4-methylpiperazin-1-yl)sulfonyl]phenyl}amino)pyr-azine-2-carboxamide], the IC50 at BTK-WT (Table 13, A compounds) is at most 10 nM; at TEC (setting [1]), 100 to 1000 nM.

Take `C[C@@H]1[C@H](NC(=O)c2ccc3c(c2)C(C)(C)OC3)CCCN1c1cnc(C(N)=O)c(Nc2cnn(C)c2)n1` [Example E-153, 5-((2R,3R)-3-(3,3-dimethyl-1,3-dihydroisobenzofuran-5-carboxamido)-2-methylpiperidin-1-yl)-3-((1-methyl-1H-pyrazol-4-yl)amino)pyrazine-2-carboxamide]: the IC50 on BTK-WT (E compounds, Table 17) was at most 10 nM; against TEC (E compounds, Table 17), at most 10 nM.

Regarding `C[C@@H]1[C@H](NC(=O)c2ccc(C3CC3)cc2F)CCCN1c1cnc(C(N)=O)c(Nc2ccc(S(=O)(=O)N3CCCC3)cc2)n1` [Example A-175, 5-[(2R,3R)-3-(4-cyclopropyl-2-fluorobenzamido)-2-methylpiperidin-1-yl]-3-{[4-(pyrrolidine-1-sulfonyl)phenyl]amino}pyr-azine-2-carboxamide], the IC50 on BTK-WT (Table 13, A compounds) is at most 10 nM; against TEC (setting [1]) it was 100 to 1000 nM.

`Cn1cc(Nc2nc(N3CCCC(C)(NC(=O)c4ccc(C5CC5)cc4)C3)cnc2C(N)=O)cn1` (stereo not drawn) [Example E-150, 5-(3-(4-cyclopropylbenzamido)-3-methylpiperidin-1-yl)-3-((1-methyl-1H-pyrazol-4-yl)amino)pyrazine-2-carboxamide]: the IC50 lay within 100 to 1000 nM on BTK-WT (E compounds, Table 17) and 100 to 1000 nM on TEC (E compounds, Table 17).

On to `C[C@@H]1[C@H](NC(=O)c2ccc(C3CC3)cc2F)CCCN1c1cnc(C(N)=O)c(Nc2nc3c(s2)CN(C)CC3)n1` [Example A-108, 5-[(2R,3R)-3-(4-cyclopropyl-2-fluorobenzamido)-2-methylpiperidin-1-yl]-3-({5-methyl-4H,5H,6H,7H-[1,3]thiazolo[5,4-c]pyridin-2-yl}amino)pyrazine-2-carboxamide], for which the 50% inhibitory concentration (IC50) on BTK-WT (Table 13, A compounds) was in the range of 100 to 1000 nM; at TEC (setting [1]), 100 to 1000 nM.

Take `Cc1cc(Nc2nc(N3CCC[C@@H](n4ccc5cc(C6CC6)ccc5c4=O)C3)cnc2C(N)=O)sn1` [Example A-107, 5-[(3R)-3-(6-cyclopropyl-1-oxo-1,2-dihydroisoquinolin-2-yl)piperidin-1-yl]-3-[(3-methyl-1,2-thiazol-5-yl)amino]pyrazine-2-carboxamide]: the IC50 at BTK-WT (Table 13, A compounds) is at most 10 nM; against TEC (setting [1]), over 10000 nM.

As to `C=CC(=O)N1CC[C@@H](N(C)c2cnc(C(N)=O)c(Nc3cnn(CCOC)c3)n2)C1` [Example E-110, (R)-5-((1-acryloylpyrrolidin-3-yl)(methyl)amino)-3-(1-(2-methoxyethyl)-1H-pyrazol-4-ylamino)pyrazine-2-carboxamide], the IC50 at BTK-WT (E compounds, Table 17) is at most 10 nM; on TEC (E compounds, Table 17), at most 10 nM.

For `C[C@@H]1[C@H](NC(=O)c2ccc(C3CC3)cc2)CCCN1c1cnc(C(N)=O)c(Nc2cnn(CCN(C)C)c2)n1` [Example A-182, 5-[(2R,3R)-3-(4-cyclopropylbenzamido)-2-methylpiperidin-1-yl]-3-({1-[2-(dimethylamino)ethyl]-1H-pyrazol-4-yl}amino)pyrazine-2-carboxamide], the 50% inhibitory concentration (IC50) at BTK-WT (Table 13, A compounds) is 10 to 100 nM; at TEC (setting [1]), 100 to 1000 nM.

Consider `C[C@@H]1[C@H](NC(=O)c2ccc(C3CC3)cc2F)CCCN1c1cnc(C(N)=O)c(Nc2cnn(C)c2)n1` [Example A-110, 5-[(2R,3R)-3-(4-cyclopropyl-2-fluorobenzamido)-2-methylpiperidin-1-yl]-3-[(1-methyl-1H-pyrazol-4-yl)amino]pyrazine-2-carboxamide], for which the 50% inhibitory concentration (IC50) at BTK-WT (Table 13, A compounds) is at most 10 nM; against TEC (setting [1]) it was 10 to 100 nM.

Regarding `C[C@@H]1[C@H](NC(=O)c2ccc(C3CC3)cc2)CCCN1c1cnc(C(N)=O)c(Nc2ccc(N3CCN(C)C[C@@H]3C)cc2)n1` [Example E-148, 5-((2R,3R)-3-(4-cyclopropylbenzamido)-2-methylpiperidin-1-yl)-3-((4-((S)-2,4-dimethylpiperazin-1-yl)phenyl)amino)pyrazine-2-carboxamide], the half-inhibitory concentration (IC50) is at most 10 nM on BTK-WT (E compounds, Table 17) and at most 10 nM at TEC (E compounds, Table 17).

Consider `CN1CCN(Cc2ccc(Nc3nc(N4CCC[C@@H](n5ccc6cc(C7CC7)ccc6c5=O)C4)cnc3C(N)=O)cc2)CC1` [Example A-111, 5-[(3R)-3-(6-cyclopropyl-1-oxo-1,2-dihydroisoquinolin-2-yl)piperidin-1-yl]-3-({4-[(4-methylpiperazin-1-yl)meth-yl]phenyl}amino)pyrazine-2-carboxamide], for which the concentration for half-maximal inhibition (IC50) is at most 10 nM on BTK-WT (Table 13, A compounds) and 10 to 100 nM at TEC (setting [1]).

On to `Cn1cc(Nc2nc(N3C[C@H](NC(=O)c4ccc(C5CC5)cc4)CC(F)(F)C3)cnc2C(N)=O)cn1` [Example A-188, (R)-5-(5-(4-cyclopropylbenzamido)-3,3-difluoropiperidin-1-yl)-3-(1-methyl-1H-pyrazol-4-ylamino)pyrazine-2-carboxamide], for which the IC50 at BTK-WT (Table 13, A compounds) was at most 10 nM; at TEC (setting [1]) it was 100 to 1000 nM.

Take `C[C@@H]1[C@H](NC(=O)c2ccc(C3CC3)cc2)CCCN1c1cnc(C(N)=O)c(Nc2ccc(N3CCN(C4COC4)C[C@@H]3C)cc2)n1` [Example E-142, 5-((2R,3R)-3-(4-cyclopropylbenzamido)-2-methylpiperidin-1-yl)-3-((4-((S)-2-methyl-4-(oxetan-3-yl)piperazin-1-yl)phenyl)amino)pyrazine-2-carboxamide]: the IC50 at BTK-WT (E compounds, Table 17) is at most 10 nM; against TEC (E compounds, Table 17), at most 10 nM.

Regarding `C[C@@H]1[C@H](NC(=O)c2noc(C(C)(C)C)n2)CCCN1c1cnc(C(N)=O)c(Nc2cnn(C)c2)n1` [Example E-149, 5-(tert-butyl)-N-((2R,3R)-1-(5-carbamoyl-6-((1-methyl-1H-pyrazol-4-yl)amino)pyrazin-2-yl)-2-methylpiperidin-3-yl)-1,2,4-oxadiazole-3-carboxamide], the half-inhibitory concentration (IC50) at BTK-WT (E compounds, Table 17) was in the range of 100 to 1000 nM; on TEC (E compounds, Table 17) it was 100 to 1000 nM.

In the case of `C[C@@H]1[C@H](NC(=O)c2ccc(-c3ncco3)cc2)CCCN1c1cnc(C(N)=O)c(Nc2cnn(C)c2)n1` [Example E-154, 3-((1-methyl-1H-pyrazol-4-yl)amino)-5-((2R,3R)-2-methyl-3-(4-(oxazol-2-yl)benzamido)piperidin-1-yl)pyrazine-2-carboxamide], the half-maximal inhibitory concentration (IC50) on BTK-WT (E compounds, Table 17) was at most 10 nM; on TEC (E compounds, Table 17) it was at most 10 nM.
